Reference: patent publication EP0877740B1, “THIOL DERIVATIVES WITH METALLOPEPTIDASE INHIBITORY ACTIVITY” (ZAMBON GROUP S.p.A., priority 1995, dated 1997)
Read-outs that look alike come from different tables or passages of the source.

Molecular target: T1, NEP (Rattus norvegicus, UniProt P07861)
T1 sequence (P07861 1-750): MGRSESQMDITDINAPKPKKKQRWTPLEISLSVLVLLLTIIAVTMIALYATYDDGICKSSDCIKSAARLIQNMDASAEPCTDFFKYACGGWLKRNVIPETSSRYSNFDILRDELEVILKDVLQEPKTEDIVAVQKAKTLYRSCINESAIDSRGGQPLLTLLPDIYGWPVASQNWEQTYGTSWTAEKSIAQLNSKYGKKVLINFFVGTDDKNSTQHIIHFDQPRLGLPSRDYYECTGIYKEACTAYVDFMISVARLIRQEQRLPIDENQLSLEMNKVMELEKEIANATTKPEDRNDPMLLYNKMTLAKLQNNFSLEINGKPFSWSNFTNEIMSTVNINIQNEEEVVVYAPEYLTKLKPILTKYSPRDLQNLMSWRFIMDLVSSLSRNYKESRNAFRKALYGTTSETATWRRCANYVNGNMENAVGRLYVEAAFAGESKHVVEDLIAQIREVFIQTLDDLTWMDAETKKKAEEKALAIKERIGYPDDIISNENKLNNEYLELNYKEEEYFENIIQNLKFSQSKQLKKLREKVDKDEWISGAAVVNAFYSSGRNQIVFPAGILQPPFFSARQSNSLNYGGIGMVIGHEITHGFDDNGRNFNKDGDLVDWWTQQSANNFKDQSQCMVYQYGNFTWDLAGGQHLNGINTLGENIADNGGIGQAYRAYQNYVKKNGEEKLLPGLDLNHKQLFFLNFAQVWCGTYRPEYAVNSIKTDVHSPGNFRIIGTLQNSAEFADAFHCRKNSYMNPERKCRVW
Assay: Ex vivo NEP-inhibitory activity in kidney homogenates of treated SHR (GAAP substrate)
Parameters: After the removal of the kidneys from SHR, the renal tissue was homogenized; from tissue; host or cells: kidney homogenate of spontaneously hypertensive rats (SHR); species or system spontaneously hypertensive rats (SHR)
Details: rat, SHR kidneys; for inhibition at 30 µmol/kg: oral 30 µmoles/kg
Description: The ex-vivo ACE/NEP-inhibitory activity, in particular, was determined by evaluating the enzymatic activity in tissue homogenates (lung and kidney for ACE and NEP activity, respectively) from spontaneously hypertensive rats (SHR) treated with the tested compounds by intravenous or oral route.
The ex vivo NEP-inhibitory activity was evaluated according to the procedure reported in the literature by M. Orlowsky et al., in Biochemistry 1981, 20, 4942-4950.
The inhibitory activity of the compounds of formula I was evaluated in kidneys of spontaneously hypertensive rats (SHR), 5 minutes after i.v. injection (0.6 and 21 µmoles/kg) and 30 minutes, 60 minutes and 4 hours after oral administration (30 µmoles/kg) of the tested compounds.
After the removal of the kidneys from SHR, the renal tissue was homogenized and incubated for 15 minutes at 37°C in the presence of Glutaryl-Ala-Ala-Phe-2-naphthylamide (GAAP), as a substrate, and aminopeptidase M at pH 7.6.
The reaction was stopped by adding an aqueous solution at 10% of trichloroacetic acid.
The released 2-naphthylamine was determined by adding fast garnet dye (2 ml).
Enzyme reaction rates were determined by measuring the increase in the optical density at 524 nm (OD524) with respect to a standard obtained with 2-naphthylamine complexed with fast garnet.
The NEP-inhibitory activity of the tested compounds was expressed as percentage of NEP-inhibition in SHR kidneys.

inhibition at 0.6 µmol/kg (iv, i.v. 0.6 µmoles/kg, 5 minutes after injection): 34%
inhibition at 21 µmol/kg (iv, i.v. 21 µmoles/kg, 5 minutes after injection): 49%
inhibition at 30 µmol/kg (30 minutes after administration, read-out: NEP-inhibition (kidneys) 30 minutes): 55%
inhibition at 30 µmol/kg (60 minutes after administration, read-out: NEP-inhibition (kidneys) 60 minutes): 39%
inhibition at 30 µmol/kg (4 hours after administration, read-out: NEP-inhibition (kidneys) 4 hours): 40%
SMILES: O=C(N[C@@H](Cc1ccc(-c2nccs2)cc1)C(=O)O)[C@@H](CS)Cc1ccccc1 [Compound 16, N-[(2S)-3-mercapto-2-phenylmethylpropionyl]-4-(2-thiazolyl)-L-phenylalanine]
